Assay results as given in patent US11186606B2, “Compositions and methods of modulating the immune response by activating alpha protein kinase 1” (Shanghai Yao Yuan Biotechnology Co., Ltd., priority 2017, dated 2021).

Target: ALPK1 (Homo sapiens, UniProt Q96QP1)
Assay: Cell-free kinase assay of ALPK1 autophosphorylation (Western, anti-phospho-threonine)
Format: biochemical
Conditions: ALPK1 2 nM, ATP; H1b-ADP 10, 1, 0.2 nM; HBP and HMP-1bP 1, 10, 100 nM
Procedure: ALPK1 activation results in its autophosphorylation. Accordingly, we next asked whether the binding of H1b-ADP to ALPK1 was sufficient to induce ALPK1 autophosphorylation. Phosphorylation assays were performed according to standard protocols. Briefly, ALPK1 was incubated (2 nM, 25° C., 1 h) in assay buffer (20 al, 25 mM HEPES pH 7.5, 50 mM KCl, 0.1 mM EDTA, 0.1 mM EGTA, 2 mM DTT, 1.5 mM CaCl2, 10 mM MgCl2) with ATP and chemically synthesized HBP, HMP-1bP, or H1b-ADP followed by denaturing gel electrophoresis and Western analysis with an anti-phospho-threonine antibody (CST) to detect autophosphorylation of ALPK1. […] The range of concentrations of HBP and HMP-1bP used in this assay (1 nM, 10 nM, 100 nM) was 10-fold higher than that used for H1b-ADP.

ALPK1, sequence (Q96QP1 whole entry): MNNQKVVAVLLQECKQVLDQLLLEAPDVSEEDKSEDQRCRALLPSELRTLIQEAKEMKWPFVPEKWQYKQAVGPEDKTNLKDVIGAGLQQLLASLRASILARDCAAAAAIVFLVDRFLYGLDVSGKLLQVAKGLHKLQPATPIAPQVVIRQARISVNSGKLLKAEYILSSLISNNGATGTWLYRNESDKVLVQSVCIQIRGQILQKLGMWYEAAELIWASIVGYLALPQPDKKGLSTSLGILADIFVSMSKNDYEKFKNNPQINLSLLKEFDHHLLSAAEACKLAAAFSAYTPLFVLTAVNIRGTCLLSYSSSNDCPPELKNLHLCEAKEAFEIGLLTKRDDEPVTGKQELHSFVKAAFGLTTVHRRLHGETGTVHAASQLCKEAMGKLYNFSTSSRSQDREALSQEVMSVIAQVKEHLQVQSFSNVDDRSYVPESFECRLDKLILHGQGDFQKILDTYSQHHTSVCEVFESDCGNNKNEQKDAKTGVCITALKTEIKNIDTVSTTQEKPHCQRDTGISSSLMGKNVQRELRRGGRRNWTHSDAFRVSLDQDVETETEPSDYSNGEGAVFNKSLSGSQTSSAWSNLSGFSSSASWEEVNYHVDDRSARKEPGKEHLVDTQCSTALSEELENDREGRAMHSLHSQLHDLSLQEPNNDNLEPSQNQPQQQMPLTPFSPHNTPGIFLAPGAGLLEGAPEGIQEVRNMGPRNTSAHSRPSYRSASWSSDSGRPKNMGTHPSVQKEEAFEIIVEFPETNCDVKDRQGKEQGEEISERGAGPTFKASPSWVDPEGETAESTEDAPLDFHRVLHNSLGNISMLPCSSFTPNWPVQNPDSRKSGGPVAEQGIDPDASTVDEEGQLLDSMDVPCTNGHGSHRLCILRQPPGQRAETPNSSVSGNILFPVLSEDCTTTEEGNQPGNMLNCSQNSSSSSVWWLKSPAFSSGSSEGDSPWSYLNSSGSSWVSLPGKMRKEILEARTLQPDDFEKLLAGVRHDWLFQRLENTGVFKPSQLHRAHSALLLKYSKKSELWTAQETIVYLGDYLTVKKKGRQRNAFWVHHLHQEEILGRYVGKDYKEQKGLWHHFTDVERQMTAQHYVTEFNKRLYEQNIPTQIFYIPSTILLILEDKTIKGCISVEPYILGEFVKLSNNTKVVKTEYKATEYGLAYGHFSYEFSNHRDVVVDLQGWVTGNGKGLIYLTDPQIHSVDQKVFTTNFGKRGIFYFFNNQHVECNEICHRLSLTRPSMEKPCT

autophosphorylation of ALPK1: detected only in the presence of H1b-ADP
Compound: Nc1ncnc2c1ncn2[C@@H]1O[C@H](COP(=O)(O)OP(=O)(O)O[C@@H]2O[C@H]([C@H](O)CO)[C@@H](O)[C@H](O)[C@@H]2O)[C@@H](O)[C@H]1O [Compound H1b-ADP, D-glycero-D-manno-heptose-1β-ADP]
